Test system: Entamoeba histolytica
Assay: Antiamoebic activity against Entamoeba histolytica HM-1:IMSS after 72 hrs
Type: functional, organism-based

SMILES	IC50
S=C(NCc1ccccc1Cl)N1N=C(c2ccccc2)CC1c1ccccc1 (stereo not drawn)	11000 nM
Cc1ccccc1NC(=S)N1N=C(c2ccccc2)CC1c1ccccc1 (stereo not drawn)	4790 nM
Cc1ccc(NC(=S)N2N=C(c3ccccc3)CC2c2ccccc2)cc1 (stereo not drawn)	380 nM
Cc1cccc(NC(=S)N2N=C(c3ccccc3)CC2c2ccccc2)c1 (stereo not drawn)	10700 nM

Second part, the compound after the results:

IC50	SMILES
450 nM	S=C(N1CCCc2ccccc21)N1N=C(c2ccccc2)CC1c1ccccc1 (stereo not drawn)
2800 nM	CN(Cc1ccccc1)C(=S)N1N=C(c2ccccc2)CC1c1ccccc1 (stereo not drawn)
1800 nM	S=C(N1CCN(c2ccccc2)CC1)N1N=C(c2ccccc2)CC1c1ccccc1 (stereo not drawn)
1600 nM	S=C(N1CCC(Cc2ccccc2)CC1)N1N=C(c2ccccc2)CC1c1ccccc1 (stereo not drawn)

— ChEMBL document CHEMBL1143803, “Syntheses, characterization and in vitro antiamoebic activity of new Pd(II) complexes with 1-N-substituted thiocarbamoyl-3,5-diphenyl-2-pyrazoline derivatives” (Eur J Med Chem, 2007)
